# Test results: patent US4228155A, “Synthetic peptides having pituitary growth hormone releasing activity” (Beckman Instruments, Inc., priority 1979, dated 1980)
# “And” between values parts separate entries of the source, which are not always exact repeats. Equal entries are not always repeated. Where a SMILES comes first, the peptide text is derived from it. [ ]: non-standard residue; d: D form.
# Tested on: pituitary
# Assay: In vitro growth hormone release study (incubated rat pituitaries, GH radioimmunoassay)
# Assay type: cell-based
# Conditions: pituitaries of 20 day old female rats, ΔGH (I3-P2),(I4-P2), ± SEM
# Method: Female rats of the CD-1 strain were housed in a constant temperature room at 24° C. with 14 hours light and 10 hours darkness. The rats were fed Purina brand rat chow ab libitum.
# All studies were started between 0800 and 1000 hours.
# Pituitaries were removed from 20 day old female rats. Two pituitaries were incubated at 36° C. in 1 ml of lactated Ringer's solution in 10 ml polytetrafluoroethylene beakers in a Dubnoff Shaker (90 cycles/min.). The pituitaries were incubated a total of 4 hours (P1, P2, I3, and I4). After two successive one hour preincubation periods (P1, P2), the peptide was added to the incubation medium hourly for 2 hours (I3, I4).
# This in vitro study was performed in triplicate and a standard radioimmunoassay of growth hormone present in the incubation medium was performed in duplicate. The hormonal activity was calculated as the difference (Δ) of growth hormone (GH) levels between I3, I4 and P2, i.e., (I3 -P2) and (I4 -P2). P values were calculated by Students' t test using six growth hormone values for each value recorded.
# The growth hormone radioimmunoassay reagents were distributed by the National Institute of Arthritis and […] (NIAMDD) program. The growth hormone values were calculated in terms of nanograms (ng) of a rat standard with a growth hormone potency of 0.61 units/mg.
compound,measurement,setting,value
"CSCC[C@H](NC(=O)[C@H](CCCCN)NC(=O)[C@@H](Cc1ccccc1)NC(=O)[C@@H](Cc1ccccc1)NC(=O)[C@@H](N)Cc1c[nH]c2ccccc12)C(N)=O [H2 N--Trp--D-Phe--D-Phe--Lys--Met--CONH2, H2 N-Trp-D-Phe-D-Phe-Lys-Met-CONH2] (H-W[dF][dF]KM-NH2)",IN VITRO GROWTH HORMONE RELEASE,0.3μg peptide,24 ± 24 ngΔGH/ml incubation medium
same,IN VITRO GROWTH HORMONE RELEASE,10μg peptide,853 ± 138 ngΔGH/ml incubation medium and 440 ± 180 ngΔGH/ml incubation medium
